Test [1] has as its system crabgrass, large. The experiment in a line: Test A pre-/postemergence herbicide test. Type of test: in vivo, Digitaria sanguinalis. A digest of the protocol: (§1)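 Directed soil spray to seeded pots (preemergence) or spray onto one- to two-leaf seedlings 2–10 cm tall (postemergence); loam/sand substrate throughout. Evaluated visually after about 10 days against untreated plants, 0 = no effect, 100 = complete control.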

The next test concerns morningglory. In words: Test A pre-/postemergence herbicide test. The format is in vivo, Ipomoea spp. In a few lines:
as §1

For another test, the system named is wheat. In words: Test A pre-/postemergence herbicide test. The format is in vivo, Triticum aestivum. In a few lines:
as §1

In another test the test system is barnyardgrass. In words: Test C flooded paddy test. The format is in vivo, Echinochloa crus-galli. To be noted: Flood. A digest of the protocol: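 Plants grown to the 2-leaf stage; pots flooded to 3 cm above soil and compound applied directly into the paddy water, depth kept throughout. Greenhouse 13 to 15 days, then visual rating vs untreated controls on 0–100 scale (0 no effect, 100 complete control); dash means no result.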

In test [2] the test system is crabgrass, large. In words: Test C pre-/postemergence herbicide test. To be noted: Preemergence. Type of test: in vivo, Digitaria sanguinalis. In a few lines:
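Two application timings ran in parallel with identically formulated test chemicals (non-phytotoxic solvent, surfactant included): spray on seeded loam–sand soil, and spray on emerged plants 2 to 18 cm high. Evaluation at 13 to 15 days compared each species with controls, rated from 0 up to 100.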

In the next test the test system is kochia. The experiment in a line: Test C pre-/postemergence herbicide test. Type of test: in vivo, Kochia scoparia. To be noted: Preemergence. The text has this: Seeds of plant species selected from blackgrass (Alopecurus myosuroides), ryegrass, Italian (Italian ryegrass, Lolium multiflorum), wheat (winter wheat, Triticum aestivum), galium (catchweed bedstraw, Galium aparine), corn (Zea mays), crabgrass, large (large crabgrass, Digitaria sanguinalis), foxtail, giant (giant foxtail, Setaria faberii), johnsongrass (Sorghum halepense), lambsquarters (Chenopodium album), morningglory (Ipomoea coccinea), nutsedge, yellow (yellow nutsedge, Cyperus esculentus), pigweed (Amaranthus retroflexus), ragweed (common ragweed, Ambrosia elatior), soybean (Glycine max), barnyardgrass (Echinochloa crus-galli), oilseed rape (Brassica napus), waterhemp (common waterhemp, Amaranthus rudis), kochia (Kochia scoparia), oat, wild (wild oat, Avena fatua), surinam grass (Brachiaria decumbens), foxtail, green (green foxtail, Setaria viridis), goosegrass (Eleusine indica), bromegrass, downy (downy bromegrass, Bromus tectorum), nightshade (eastern black nightshade, Solanum ptycanthum), cocklebur (common cocklebur, Xanthium strumarium), cupgrass, woolly (woolly cupgrass, Eriochloa villosa), bermudagrass (Cynodon dactylon), sunflower, (common oilseed sunflower, Helianthus annuus), Russian thistle (Salsola kali) and velvetleaf (Abutilon theophrasti) were planted into a blend of loam soil and sand and treated preemergence with test chemicals formulated in a non-phytotoxic solvent mixture which included a surfactant. At the same time, plants selected from these crop and weed species and also barley (winter barley, Hordeum vulgare), […]), chickweed (common chickweed, Stellaria media), deadnettle (henbit deadnettle, Lamium amplexicaule), and canarygrass (littleseed canarygrass, Phalaris minor) were planted in pots containing Redi-Earth® planting medium (Scotts Company, 14111 Scottslawn Road, Marysville, Ohio 43041) comprising spaghnum peat moss, vermiculite, wetting agent and starter nutrients and treated with postemergence applications of test chemicals formulated in the same manner. Plants ranged in height from 2 to 18 cm (1- to 4-leaf stage) for postemergence treatments. Treated plants and controls were maintained in a greenhouse for 13 to 15 days, after which time all species were compared to controls and visually evaluated. Plant response ratings, summarized in Table C, are based on a scale of 0 to 100 where 0 is no effect and 100 is complete control. A dash (-) response means no test result.

[3] abbreviates: Postemergence, 125 g ai/ha, 0 to 100 scale, 0 no effect, 100 complete control.
The mark [4] stands for this setting: Postemergence, 500 g ai/ha, 0 to 100 scale (0 no effect, 100 complete control).
Setting [5] is: Preemergence, 125 g ai/ha, visual rating on 0 to 100 scale (0 no effect, 100 complete control).
Where [6] appears, read: preemergence, 500 g ai/ha, 0 to 100 scale.
The mark [7] stands for this setting: 31 g ai/ha, scale of 0 to 100 where 0 is no effect and 100 is complete control, 13 to 15 days.
Setting [8] is: 62 g ai/ha, scale of 0 to 100 where 0 is no effect and 100 is complete control, 13 to 15 days.
Where [9] appears, read: 125 g ai/ha, scale of 0 to 100 where 0 is no effect and 100 is complete control, 13 to 15 days.
[10] abbreviates: Postemergence, 1000 g ai/ha, 0 to 100 scale (0 no effect, 100 complete control).
The mark [11] stands for this setting: Preemergence, 1000 g ai/ha, visual rating on 0 to 100 scale (0 no effect, 100 complete control), approx. 10 days.
[12] abbreviates: 31 g ai/ha, scale 0 to 100 (0 no effect, 100 complete control).
The mark [13] stands for this setting: 125 g ai/ha, scale 0 to 100 (0 no effect, 100 complete control).
Where [14] appears, read: 250 g ai/ha, scale 0 to 100 (0 no effect, 100 complete control).
[15] abbreviates: 125 g ai/ha, visual rating, 0 to 100 scale, 0 no effect, 100 complete control, approximately 10 days, preemergence.
[16] abbreviates: Postemergence, 125 g ai/ha, 0 to 100 scale, 0 is no effect, 100 is complete control.
[17] abbreviates: preemergence, 500 g ai/ha, 0 to 100 scale, 0 is no effect and 100 is complete control.
Where [18] appears, read: 31 g ai/ha, scale 0 to 100, 0 is no effect and 100 is complete control.
Setting [19] is: 62 g ai/ha, scale 0 to 100 (0 no effect, 100 complete control).
Where [20] appears, read: Preemergence, 125 g ai/ha, 0 to 100 scale where 0 is no effect and 100 is complete control.
Where [21] appears, read: 250 g ai/ha, scale of 0 to 100 where 0 is no effect and 100 is complete control, 13 to 15 days.

Take `O=C1NCC(c2ccc(F)c(F)c2)C1C(=O)Nc1cccc(F)c1` (racemic) [Compound 12]: the “Plant response rating, Crabgrass, Large” value with crabgrass, large [1] (setting [3]) is 80; in the test with crabgrass, large [1] (setting [4]), 90; in the test with crabgrass, large [1] (setting [6]), 90. In addition, in the test with crabgrass, large [1] (setting [5]), the “Crabgrass, Large plant response rating” value came out at 90. Moreover, the “Plant response rating, Morningglory” value in the test on morningglory (setting [3]), in the test on morningglory (setting [4]) and in the test on morningglory (setting [6]) was 0 in each case. Moreover, the “Morningglory plant response rating” value in the test on morningglory (setting [5]) is reported as 0. Besides, the results for the “Plant response rating, Wheat” value with wheat (setting [3]), with wheat (setting [4]) and with wheat (setting [6]) were 0, 20 and 20, respectively. In addition, the “Wheat plant response rating” value with wheat (setting [5]) is reported as 0. For the same compound, the “Plant response rating, Barnyardgrass” value in the test with barnyardgrass (setting [7]) is 0; with barnyardgrass (setting [8]), 0; in the test on barnyardgrass (setting [9]), 0; with barnyardgrass (250 g ai/ha, scale 0 to 100), 65.

With `O=C1NCC(c2cc(F)c(F)c(F)c2)C1C(=O)Nc1ccccc1C(F)(F)F` (racemic) [Compound 33], the “Plant response rating, Crabgrass, Large” value is given as 90 in the test with crabgrass, large [1] (setting [10]); 90 in the test on crabgrass, large [1] (setting [11]); 98 with crabgrass, large [2] (62 g ai/ha, scale 0 to 100); 100 in the test on crabgrass, large [2] (setting [13]); 100 in the test with crabgrass, large [2] (setting [14]). The “Plant response rating, Morningglory” value with morningglory (setting [10]) stood at 20. The “Plant response rating, Wheat” value amounted to 60 in the test with wheat (setting [10]) and 50 with wheat (setting [11]). Moreover, the “Crabgrass, Large plant response rating” value with crabgrass, large [2] (setting [12]) was found to be 95. The “Plant response rating, Kochia” value in the test with kochia (62 g ai/ha, scale 0 to 100) was 0; in the test with kochia (setting [13]), 0.

Consider `Cc1ccccc1NC(=O)C1C(=O)NCC1c1cc(F)c(F)c(F)c1` (racemic) [Compound 35], for which the “Plant response rating, Crabgrass, Large” value with crabgrass, large [1] (setting [10]) is 90; in the test on crabgrass, large [1] (setting [11]), 90; in the test with crabgrass, large [2] (62 g ai/ha, scale 0 to 100), 98; in the test on crabgrass, large [2] (setting [13]) it was 100; in the test with crabgrass, large [2] (setting [14]) it was 100. Besides, the “Plant response rating, Morningglory” value in the test with morningglory (setting [10]) and with morningglory (setting [11]) was 0 in each case. For the same compound, the “Plant response rating, Wheat” value worked out at 40 in the test with wheat (setting [10]) and 0 in the test on wheat (setting [11]). Besides, the “Crabgrass, Large plant response rating” value in the test with crabgrass, large [2] (setting [12]) was determined as 95. In addition, the “Plant response rating, Kochia” value was determined as 0 in the test on kochia (62 g ai/ha, scale 0 to 100) and 5 with kochia (setting [13]).

As to `O=C1NCC(c2cccc(C(F)(F)F)c2)C1C(=O)Nc1ccccc1Cl` (racemic) [Compound 189], the “Plant response rating, Crabgrass, Large” value in the test on crabgrass, large [1] (setting [15]) is 90; in the test with crabgrass, large [1] (setting [16]), 60; in the test on crabgrass, large [1] (setting [17]), 90; in the test on crabgrass, large [2] (setting [13]), 98; in the test on crabgrass, large [2] (16 g ai/ha, scale 0 to 100), 90. Also, in the test on crabgrass, large [1] (Postemergence, 500 g ai/ha), the “Crabgrass, Large plant response rating (0 to 100 scale, 0 is no effect, 100 is complete control)” value is reported as 80. Also, the “Plant response rating, Morningglory” value in the test with morningglory (setting [15]), with morningglory (setting [16]) and with morningglory (setting [17]) was 0 in each case. Besides, the “Morningglory plant response rating (0 to 100 scale, 0 is no effect, 100 is complete control)” value in the test on morningglory (Postemergence, 500 g ai/ha) came to 0. The “Plant response rating, Wheat” value is recorded as 0 with wheat (setting [15]), 0 with wheat (setting [16]) and 20 with wheat (setting [17]). Moreover, in the test on wheat (Postemergence, 500 g ai/ha), the “Wheat plant response rating (0 to 100 scale, 0 is no effect, 100 is complete control)” value is on record as 0. Further, the “Crabgrass, Large plant response rating” value in the test with crabgrass, large [2] (setting [18]) is on record as 95; in the test on crabgrass, large [2] (setting [19]), 95. Moreover, the “Plant response rating, Barnyardgrass” value in the test on barnyardgrass (setting [9]) was 10; with barnyardgrass (250 g ai/ha, scale 0 to 100), 30; with barnyardgrass (500 g ai/ha, scale 0 to 100), 50; in the test on barnyardgrass (1000 g ai/ha, scale 0 to 100), 75.

For the compound `O=C1NCC(c2ccc(C(F)(F)F)c(F)c2)C1C(=O)Nc1cccc(F)c1F` (racemic) [Compound 247], the “Plant response rating, Crabgrass, Large” value in the test with crabgrass, large [1] (setting [16]) is reported as 50; in the test with crabgrass, large [1] (setting [4]) it was 70; in the test with crabgrass, large [1] (setting [20]), 90; with crabgrass, large [1] (setting [17]), 90; in the test with crabgrass, large [2] (setting [13]), 98. Also, the “Plant response rating, Morningglory” value in the test on morningglory (setting [16]), with morningglory (setting [4]), in the test on morningglory (setting [20]) and in the test with morningglory (setting [17]) was 0 in each case. Moreover, the “Plant response rating, Wheat” value in the test with wheat (setting [16]) amounted to 0; with wheat (setting [4]), 30; with wheat (setting [20]), 0; with wheat (setting [17]) it was 0. Also, the “Crabgrass, Large plant response rating” value with crabgrass, large [2] (setting [18]) turned out to be 95; in the test on crabgrass, large [2] (setting [19]), 95. The “Plant response rating (scale of 0 to 100), Crabgrass, Large” value with crabgrass, large [2] (250 g ai/ha) is listed as 100. The “Plant response rating, Barnyardgrass” value in the test on barnyardgrass (setting [21]) amounted to 25; in the test with barnyardgrass (500 g ai/ha, scale 0 to 100), 35; in the test with barnyardgrass (1000 g ai/ha, scale 0 to 100), 70; in the test with barnyardgrass (2000 g ai/ha, scale 0 to 100), 80.

Turning to `O=C1NCC(c2ccc(C(F)(F)F)nc2)C1C(=O)Nc1cccc(F)c1F` (racemic) [Compound 263], the “Plant response rating, Crabgrass, Large” value in the test on crabgrass, large [1] (setting [16]) was found to be 80; in the test with crabgrass, large [1] (setting [4]) it was 90; in the test on crabgrass, large [1] (setting [20]) it was 90; in the test on crabgrass, large [1] (setting [17]), 100; in the test with crabgrass, large [2] (setting [13]), 100. Also, the entries for the “Plant response rating, Morningglory” value with morningglory (setting [4]), in the test on morningglory (setting [20]) and in the test with morningglory (setting [17]) were 60, 0 and 0, respectively. Besides, the “Plant response rating, Wheat” value with wheat (setting [4]) was 60; in the test with wheat (setting [20]), 0; with wheat (setting [17]) it was 60. The “Crabgrass, Large plant response rating” value with crabgrass, large [2] (setting [18]) was 100; in the test with crabgrass, large [2] (setting [19]) it was 100. For the same compound, in the test with crabgrass, large [2] (250 g ai/ha), the “Plant response rating (scale of 0 to 100), Crabgrass, Large” value stood at 100. Also, the “Plant response rating, Barnyardgrass” value with barnyardgrass (setting [7]) was 20; in the test on barnyardgrass (setting [8]) it was 35; in the test with barnyardgrass (setting [9]), 45; with barnyardgrass (setting [21]), 80.

The values are drawn from US10294202B2, “Pyrrolidinones as herbicides” (FMC Corporation, priority 2013, dated 2019).
